Measurements taken from publication PMC9549030, “Structural basis for specific inhibition of the deubiquitinase UCHL1” (Nature Communications, 2022).
Where a chain is given by its changes, count along the chain named. “And” between values parts separate entries of the source, which are not always exact repeats. Equal values may be shown once. Read-outs that look alike come from different tables or passages of the source.

Experiments:
UCHL1 [1] = molecular target: T1, UCHL1 (Homo sapiens, UniProt P09936); test: Ub-Rhodamine (Ubiquitin rhodamine cleavage) assay; type: biochemical; conditions: for normalized UCHL1 activity: independent experiments
T1 sequence (P09936 1-223): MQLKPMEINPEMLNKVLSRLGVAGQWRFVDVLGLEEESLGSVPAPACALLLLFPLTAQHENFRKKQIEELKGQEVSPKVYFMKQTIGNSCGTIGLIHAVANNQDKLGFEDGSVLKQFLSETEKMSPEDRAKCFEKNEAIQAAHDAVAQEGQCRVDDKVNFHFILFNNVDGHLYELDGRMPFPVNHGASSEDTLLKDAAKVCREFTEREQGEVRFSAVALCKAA

UCHL3 A11I = molecular target: T2, UCHL3 A11I (Homo sapiens, UniProt P15374, A11I); test: Ub-Rhodamine (Ubiquitin rhodamine cleavage) assay; type: biochemical
T2 sequence (P15374 1-230 A11I): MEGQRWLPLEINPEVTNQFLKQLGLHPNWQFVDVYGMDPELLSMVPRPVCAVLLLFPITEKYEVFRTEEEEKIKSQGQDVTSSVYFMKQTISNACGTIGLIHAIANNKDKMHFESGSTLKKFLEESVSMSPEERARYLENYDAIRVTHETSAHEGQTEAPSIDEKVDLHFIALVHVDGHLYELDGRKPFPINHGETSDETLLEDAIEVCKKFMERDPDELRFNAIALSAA

UCHL3 L168F = molecular target: T3, UCHL3 L168F (Homo sapiens, UniProt P15374, L168F); test: Ub-Rhodamine (Ubiquitin rhodamine cleavage) assay; type: biochemical
T3 sequence (P15374 1-230 L168F): T2 sequence (P15374 1-230 A11I) with I11A, L168F

UCHL1 [2] = molecular target: T1, UCHL1; test: Jump-dilution assay; type: biochemical; conditions: 625 nM GK13S 2 h, then diluted 100-fold
Protocol: Reactions were performed in similar 384 plates as above in a final volume of 20 µL. […] Parts of this solution were diluted at 1:50 at different time points with buffer H. All samples were then diluted 1:2 with 100 nM Ub-Rho (buffer H, final concentration in well 50 nM) and fluorescence was recorded as described above.

UCHL1 in HEK293 cells = tested on: T4, UCHL1 in HEK293 cells; test: Cellular Ub-probe (HA-Ub-VS) competition, inhibition of cellular UCHL1; type: cell-based, human; conditions: HEK293 cells
T4 construct: Western blot analysis of endogenous UCHL1 labeled with HA-Ub-VS after treatment of HEK293 cells; endogenous in cells; host or cells: HEK293
Protocol: (§1) Proteins were transferred to a polyvinylidene fluoride (PVDF, only experiments in Fig. 4e and Supplementary Fig. 7e, f) or nitrocellulose (all other experiments) membrane using a Trans-Blot Turbo system (Bio-Rad, 1.3 A, 25 V, 10 min). The membranes were blocked with 5% (m/v) nonfat milk in PBS-T buffer and incubated with indicated primary antibodies (anti-UCHL1, 1:1000, Cell Signaling, D3T2E; anti-PARK7, 1:1000, Cell Signaling, D29E5; anti-Tubulin, 1:4000, Sigma, T6199; anti-Hemagglutinin, 1:1000, BioLegend, 16B12; anti-flag, 1:2000, Sigma, F3165; anti-Ubiquitin, 1:1000, Cell Signaling, P4D1; anti-Ubiquitin, 1:300, Santa Cruz, P4D1, sc-8017; anti-UCHL3, 1:1000, Proteintech, 12384-1-AP) overnight. Then the membranes were incubated with the respective secondary antibody (anti-mouse,1:5000, Sigma, NXA931; anti-rabbit, 1:5000, Sigma, GENA934) coupled to horseradish peroxidase. The chemiluminescent reaction was initiated using a Clarity Western ECL substrate (Bio-Rad) and images were taken on a ChemiDoc MP Imaging System (Bio-Rad).
(§2) The total protein concentration was adjusted to 2 mg/ml by diluting each sample with ABP lysis buffer. A final concentration of 1 µM HA-Ub-VS probe was added, followed by incubation for 30 min at 37 °C. The labeling reaction was quenched by the addition of 4x LDS sample buffer. The samples were separated via SDS-PAGE and further analyzed via western blotting as described above.

UCHL1 in U-87 MG cells = tested on: T5, UCHL1 in U-87 MG cells; test: as above; type: cell-based, human; conditions: 1 or 24 h
T5 construct: Western blot analysis of endogenous UCHL1 labeled with HA-Ub-VS after treatment of U-87 MG cells; endogenous in cells; host or cells: U-87 MG
Protocol: as §1, §2

HEK293 cells = test: Cell growth and viability assay (confluency, propidium iodide); type: cell-based, human; conditions: up to 5 µM, up to 72 h
Protocol: (§3) HEK293 cells (5 × 10^3/well) or U-87 MG cells (5.5 × 10^3/well) were seeded into 96-well dishes. The following day cells were treated with the compounds at varying concentrations and propidium iodide at 20 µg/mL. The plates were immediately transferred to the Incucyte S3. Bright-field and red fluorescent images were automatically captured at 1 or 2 h intervals for 72 h with 10x magnification. The confluency of cells and the number of PI-positive cells was determined using the Incucyte masking program.

U-87 MG cells = test: as above; type: cell-based, human; conditions: up to 5 µM, up to 72 h
Protocol: as §3

[3] = 1 h, read-out: UCHL1 activity, data point mean

Question: With C#CCCCNC(=O)c1ccc(-n2cnc(NC(=O)[C@H]3CCN(C#N)C3)c2)cc1 [GK13S] as the compound, how does the remaining activity at 0.000610352 µM (UCHL1 [1]; [3]) read?
Answer: 98.8%

Question: And the remaining activity at 0.0012207 µM (UCHL1 [1]; [3])?
Answer: 96.5%

Question: And the remaining activity at 0.00244141 µM (UCHL1 [1]; [3])?
Answer: 95%

Question: And the remaining activity at 0.00488281 µM (UCHL1 [1]; [3])?
Answer: 91.2%

Question: What about the remaining activity at 0.00976562 µM (UCHL1 [1]; [3]) of the same compound?
Answer: 85.3%

Question: What about the remaining activity at 0.0195312 µM (UCHL1 [1]; [3]) of the same compound?
Answer: 76.8%

Question: And the remaining activity at 0.0390625 µM (UCHL1 [1]; [3])?
Answer: 65.7%

Question: What about the remaining activity at 0.078125 µM (UCHL1 [1]; [3]) of the same compound?
Answer: 44.1%

Question: What about the remaining activity at 0.15625 µM (UCHL1 [1]; [3]) of the same compound?
Answer: 23.2%

Question: What about the remaining activity at 0.3125 µM (UCHL1 [1]; [3]) of the same compound?
Answer: 8.06%

Question: And the remaining activity at 0.625 µM (UCHL1 [1]; [3])?
Answer: 3.5%

Question: And the remaining activity at 1.25 µM (UCHL1 [1]; [3])?
Answer: 2.31%

Question: What about the remaining activity at 2.5 µM (UCHL1 [1]; [3]) of the same compound?
Answer: 3.03%

Question: And the remaining activity at 5 µM (UCHL1 [1]; [3])?
Answer: 1.18%

Question: And the remaining activity at 10 µM (UCHL1 [1]; [3])?
Answer: 0.488%

Question: What about the IC50 (UCHL1 [1]; 1 h preincubation, mean ± SD of independent experiments, read-out: IC50 (UCHL1)) of the same compound?
Answer: 0.05 µM

Question: And the IC50 (UCHL1 [1]; Fig. 6b, catalytic domain, 1 h preincubation with GK13S, read-out: IC50 (UCHL1))?
Answer: 0.087 ± 0.008 µM

Question: What about the “normalized UCHL1 activity” value (UCHL1 [1]; GK13S 0.610352 nM, 1 h preincubation) of the same compound?
Answer: 0.9506 and 0.9879 and 1.014 and 0.9975 and 0.9955

Question: What about the “normalized UCHL1 activity” value (UCHL1 [1]; GK13S 1.2207 nM, 1 h preincubation) of the same compound?
Answer: 0.9497 and 0.9646 and 1.019 and 1.0024 and 0.9988

Question: What about the “normalized UCHL1 activity” value (UCHL1 [1]; GK13S 2.44141 nM, 1 h preincubation) of the same compound?
Answer: 0.9185 and 0.9495 and 1.017 and 0.9974 and 0.9924

Question: And the “normalized UCHL1 activity” value (UCHL1 [1]; GK13S 4.88281 nM, 1 h preincubation)?
Answer: 0.8798 and 0.9115 and 1.0474 and 0.9893 and 0.9704

Question: What about the “normalized UCHL1 activity” value (UCHL1 [1]; GK13S 9.76562 nM, 1 h preincubation) of the same compound?
Answer: 0.8185 and 0.8529 and 0.9722 and 1.013 and 0.9579

Question: And the “normalized UCHL1 activity” value (UCHL1 [1]; GK13S 19.5312 nM, 1 h preincubation)?
Answer: 0.7093 and 0.7679 and 0.9238 and 0.9667 and 0.9242

Question: What about the “normalized UCHL1 activity” value (UCHL1 [1]; GK13S 39.0625 nM, 1 h preincubation) of the same compound?
Answer: 0.5709 and 0.6568 and 0.8808 and 0.9371 and 0.8799

Question: What about the IC50 (UCHL1 [1]; source data Fig. 3b, 1 h preincubation, read-out: Averaged IC50s from independent experiments (single experiments)) of the same compound?
Answer: 0.036 µM and 0.065 µM and 0.049 µM

Question: And the IC50 (UCHL3 A11I)?
Answer: 32 ± 7 µM

Question: And the IC50 (UCHL3 L168F)?
Answer: 33 ± 11 µM

Question: And the “reversibility of inhibition after jump dilution” value (UCHL1 [2])?
Answer: inhibition was sustained

Question: What about the “inhibition of cellular UCHL1” value (UCHL1 in HEK293 cells; 1 µM, 24 h) of the same compound?
Answer: near complete inhibition

Question: What about the “inhibition of cellular UCHL1” value (UCHL1 in HEK293 cells; 5 µM, 24 h) of the same compound?
Answer: Full inhibition

Question: What about the “inhibition of cellular UCHL1” value (UCHL1 in HEK293 cells; 1 and 5 µM, 1 h and 24 h (Supplementary Fig. 5f)) of the same compound?
Answer: time- and concentration-dependent inhibition

Question: And the “inhibition of cellular UCHL1” value (UCHL1 in U-87 MG cells)?
Answer: complete inhibition

Question: And the “growth arrest and apoptosis” value (HEK293 cells)?
Answer: neither GK13S nor GK16S showed growth arrest nor apoptosis

Question: What about the “toxicity (cell growth and viability)” value (U-87 MG cells) of the same compound?
Answer: nontoxic
